Data taken from article PMC12888869, “A short antimicrobial peptides family demonstrates efficacy to infection via a multimodal mechanism of action” (Antimicrobial Agents and Chemotherapy, 2025).
No end group written: not given here.

test system: S. aureus; experiment: not given; format: cell-based, Staphylococcus aureus; details: 12 h
Experimental: (§1) The MIC of the peptides against a range of bacteria was determined using the microbroth dilution method with slight modifications ([62]). In brief, the bacteria mentioned above were dispersed in the LB (10^5 CFU mL^−1) and were mixed with gradient concentrations (0.25 μM–16 μM) of SAMPs in the 96-well plate (n = 3). After incubation at 37°C for 16–18 h, the absorbance at 600 nm was measured using a microplate reader (Thermo Fisher Scientific, Multiskan MK3, China). The lowest peptide concentration with no absorbance increase was defined as the MICs. The bacterial solution in the 96-well plate was then transferred to solid LB medium to culture single colonies (n = 3), and the lowest peptide concentration at which almost no colonies survive (less than 0.01%) was defined as the MBCs.
(§2) Based on previous methods, stability was analyzed by monitoring the changes in the antimicrobial efficacy of SAMPs in the presence of salts and serum ([37], [38]). The SAMPs underwent incubation with physiological salts (150 mM NaCl, 4.5 mM KCl) or serum at 37°C for 12 h, followed by measurement of their MICs using the previously outlined method (n = 3).

Substance | MIC after treatment, KCl [µM] | MIC after treatment, NaCl [µM] | MIC after treatment, Serum [µM]
FLKLRLWGKLLWKLK-NH2 [GK] | 1 | 1 | 1
FLKLRLWKRLLWKLK-NH2 [KR] | 0.25 | 0.25 | 0.25
FLKLRLWGRLLWKLK-NH2 [GR] | 1 | 1 | 1
FLKLRLWRKLLWKLK-NH2 [RK] | 0.25 | 0.25 | 0.25
FLKLRLWKKLLWKLK-NH2 [KK] | 0.5 | 1 | 0.5
FLKLRLWRRLLWKLK-NH2 [RR] | 0.5 | 0.5 | 0.5

test system: E. coli; experiment: not given; format: cell-based, Escherichia coli; details: 12 h
Experimental: as §1, §2

Substance | MIC after treatment, KCl [µM] | MIC after treatment, NaCl [µM] | MIC after treatment, Serum [µM]
FLKLRLWGKLLWKLK-NH2 [GK] | 2 | 2 | 2
FLKLRLWKRLLWKLK-NH2 [KR] | 0.25 | 0.25 | 0.25
FLKLRLWGRLLWKLK-NH2 [GR] | 2 | 2 | 2
FLKLRLWRKLLWKLK-NH2 [RK] | 0.25 | 0.25 | 0.25
FLKLRLWKKLLWKLK-NH2 [KK] | 0.5 | 1 | 0.5
FLKLRLWRRLLWKLK-NH2 [RR] | 0.5 | 1 | 0.5

test system: E. coli (ATCC 25922); experiment: not given; format: cell-based, Escherichia coli; details: ATCC 25922
Experimental: (§3) Two MDR bacteria, MDR-E. coli (LZ-7, drug resistance: compound sulfamethoxazole, ampicillin, gentamicin, ciprofloxacin, levofloxacin) and MDR-A. baumannii (AB-29, drug resistance: 11 kinds of antibiotics including cephalosporins), along with three pathogenic bacteria, E. coli (ATCC 25922), S. aureus (ATCC 6538), and A. baumannii (309-14) were included in the study. A single colony of each bacterium was cultured in Luria-Bertani (LB) medium at 37°C and 180 rpm for 12–16 h until the logarithmic growth phase for use.
as §1

Substance | MBC [µM] | MIC [µM]
FLALALIQEAIAKLK-NH2 [FA, Kassporin-KS1, reference compound] | >128 | >32
FLKLRLWGKLLWKLK-NH2 [GK] | 8 | 2
FLKLRLWKRLLWKLK-NH2 [KR] | 0.5 | 0.25
FLKLRLWGRLLWKLK-NH2 [GR] | 8 | 2
FLKLRLWRKLLWKLK-NH2 [RK] | 1 | 0.25
FLKLRLWKKLLWKLK-NH2 [KK] | 4 | 0.5
FLKLRLWRRLLWKLK-NH2 [RR] | 2 | 0.5

same assay, conditions: E. coli; microbroth dilution in LB, 10^5 CFU mL−1, 37°C, 16–18 h, absorbance 600 nm, n = 3

Substance | MIC [µM]
Colistin E [reference compound] | 256

test system: MDR-E. coli (LZ-7); experiment: not given; format: cell-based, Escherichia coli; details: MDR- (LZ-7)
Experimental: as §3, §1

Substance | MBC [µM] | MIC [µM]
FLALALIQEAIAKLK-NH2 [FA, Kassporin-KS1, reference compound] | >128 | >32
FLKLRLWGKLLWKLK-NH2 [GK] | 16 | 16
FLKLRLWKRLLWKLK-NH2 [KR] | 4 | 1
FLKLRLWGRLLWKLK-NH2 [GR] | 16 | 16
FLKLRLWRKLLWKLK-NH2 [RK] | 4 | 2
FLKLRLWKKLLWKLK-NH2 [KK] | 8 | 2
FLKLRLWRRLLWKLK-NH2 [RR] | 8 | 2

same assay, conditions: MDR-E. coli; microbroth dilution in LB, 10^5 CFU mL−1, 37°C, 16–18 h, absorbance 600 nm, n = 3

Substance | MIC [µM]
Colistin E [reference compound] | >256

test system: S. aureus and E. coli; experiment: Drug resistance assay (serial passage); format: cell-based; details: Colistin E 4 μg mL−1, 30 days
Experimental: The evaluation of drug resistance in SAMPs was performed through MIC value detection ([74]). Resistance was defined as a greater than fourfold increase in the MIC from its initial value. S. aureus and E. coli grown in LB medium supplemented with 0.5 × MIC of each SAMP were repeated for 30 days, followed by determination of MIC values using the same methodology outlined above (n = 3). Meanwhile, Colistin E (4 μg mL^-1) was used as the control group to induce bacterial resistance in the same way.

Substance | antimicrobial activity after resistance induction
Colistin E [reference compound] | significant decrease in the antimicrobial activity

test system: S. aureus, E. coli, A. baumannii, MDR-E. coli, MDR-A. baumannii; experiment: not given; format: cell-based; details: not given
Experimental: as §3, §1

Substance | MIC, three prevalent pathogenic bacteria [µM] | MIC, common pathogenic bacteria and MDR bacteria [µM]
FLALALIQEAIAKLK-NH2 [FA, Kassporin-KS1, reference compound] | > 32 | 
FLKLRLWKRLLWKLK-NH2 [KR] |  | 0.25 to 2
FLKLRLWRKLLWKLK-NH2 [RK] |  | 0.25 to 2

test system: S. aureus (ATCC 6538); experiment: not given; format: cell-based, Staphylococcus aureus; details: ATCC 6538
Experimental: as §3, §1

Substance | MBC [µM] | MIC [µM]
FLALALIQEAIAKLK-NH2 [FA, Kassporin-KS1, reference compound] | >128 | >32
FLKLRLWGKLLWKLK-NH2 [GK] | 2 | 1
FLKLRLWKRLLWKLK-NH2 [KR] | 0.5 | 0.25
FLKLRLWGRLLWKLK-NH2 [GR] | 2 | 1
FLKLRLWRKLLWKLK-NH2 [RK] | 1 | 0.25
FLKLRLWKKLLWKLK-NH2 [KK] | 2 | 0.5
FLKLRLWRRLLWKLK-NH2 [RR] | 2 | 0.5

same assay, conditions: S. aureus; microbroth dilution in LB, 10^5 CFU mL−1, 37°C, 16–18 h, absorbance 600 nm, n = 3

Substance | MIC [µM]
Colistin E [reference compound] | >256

test system: A. baumannii (309-14); experiment: not given; format: cell-based, Acinetobacter baumannii; details: 309-14
Experimental: as §3, §1

Substance | MBC [µM] | MIC [µM]
FLALALIQEAIAKLK-NH2 [FA, Kassporin-KS1, reference compound] | >128 | >32
FLKLRLWGKLLWKLK-NH2 [GK] | 4 | 2
FLKLRLWKRLLWKLK-NH2 [KR] | 0.25 | 0.25
FLKLRLWGRLLWKLK-NH2 [GR] | 2 | 2
FLKLRLWRKLLWKLK-NH2 [RK] | 0.5 | 0.5
FLKLRLWKKLLWKLK-NH2 [KK] | 1 | 0.5
FLKLRLWRRLLWKLK-NH2 [RR] | 1 | 1

same assay, conditions: A. baumannii; microbroth dilution in LB, 10^5 CFU mL−1, 37°C, 16–18 h, absorbance 600 nm, n = 3

Substance | MIC [µM]
Colistin E [reference compound] | 32

test system: MDR-A. baumannii (AB-29); experiment: not given; format: cell-based, Acinetobacter baumannii; details: MDR- (AB-29)
Experimental: as §3, §1

Substance | MBC [µM] | MIC [µM]
FLALALIQEAIAKLK-NH2 [FA, Kassporin-KS1, reference compound] | >128 | >32
FLKLRLWGKLLWKLK-NH2 [GK] | 4 | 1
FLKLRLWKRLLWKLK-NH2 [KR] | 0.25 | 0.25
FLKLRLWGRLLWKLK-NH2 [GR] | 2 | 0.5
FLKLRLWRKLLWKLK-NH2 [RK] | 0.5 | 0.25
FLKLRLWKKLLWKLK-NH2 [KK] | 1 | 0.5
FLKLRLWRRLLWKLK-NH2 [RR] | 2 | 0.5

same assay, conditions: MDR-A. baumannii; microbroth dilution in LB, 10^5 CFU mL−1, 37°C, 16–18 h, absorbance 600 nm, n = 3

Substance | MIC [µM]
Colistin E [reference compound] | 128
